Results as given in PMC7116364 (Science translational medicine, 2020).
“And” between values parts separate entries of the source, which are not always exact repeats. Equal values may be shown once. Read-outs that look alike come from different tables or passages of the source.

What was measured:
[1] = system: venom SVMPs from six saw-scaled vipers; assay type: biochemical; details: read-out: IC50, neutralization of venom SVMP activity
[2] = system: procoagulant activity of six Echis venoms; assay type: biochemical; details: for IC50: read-out: IC50, neutralization of venom-induced plasma clotting
[3] = system: venom-induced plasma clotting (Echis venoms, calcium-independent); assay type: biochemical; details: for IC50: read-out: IC50, venom-induced plasma clotting in the absence of calcium
[4] = system: E. ocellatus venom (Nigeria); experiment: coincubation model of envenoming; design: species or system male CD1 mice; details: mouse, in vivo, iv
E. pyramidum venom [5] = experiment: coincubation model of envenoming; design: species or system male CD-1 mice; details: mouse, in vivo, iv
[6] = system: E. carinatus (India) venom; experiment: coincubation model of envenoming; design: species or system male CD-1 mice; details: mouse, in vivo, iv
E. ocellatus venom [7] = system: E. ocellatus venom; design: species or system male CD-1 mice; details: mouse, in vivo, ip
E. pyramidum venom [8] = system: E. pyramidum venom; design: species or system male CD-1 mice; details: mouse, in vivo, ip
[9] = system: E. carinatus (India) venom; design: species or system male CD-1 mice; details: mouse, in vivo, ip
[10] = system: E. ocellatus, E. pyramidum and E. carinatus venoms; design: species or system male CD-1 mice; details: mouse, in vivo, ip
E. ocellatus venom [11] = experiment: challenge and treat model using oral DMPS, E. ocellatus; design: species or system male CD-1 mice; details: mouse, in vivo
E. ocellatus venom [12] = experiment: neutralization of local hemorrhage; design: species or system male CD-1 mice; details: mouse, in vivo
E. ocellatus venom [13] = system: E. ocellatus venom; design: species or system mice; details: mouse, in vivo, iv
[14] = system: venoms of E. pyramidum and E. carinatus; design: species or system mice; details: mouse, in vivo, iv
[15] = system: PLA2 activity of fractionated E. ocellatus venom; assay type: biochemical
[16] = system: serine protease activity of fractionated E. ocellatus venom; assay type: biochemical
[17] = humans, cited from earlier work
[18] = rats and rabbits, first 6 h, after oral dosing; cited from earlier work
[19] = rabbits and dogs, intravenous or oral administration for 10-26 weeks; cited from earlier work
[20] = drug-only / antivenom-only control groups; details: 600 µg DMPS orally, 24 h
[21] = system: Indian E. carinatus venom; assay type: biochemical; details: read-out: IC50, plasma assay
[22] = system: cleavage of recombinant human prothrombin by saw-scaled viper venom; assay type: biochemical, Echis; details: lower dose (150 µM)

Row | SMILES | IC50 [1] [µM] | IC50 [2] [µM] | IC50 [3] [µM] | plasma thrombin-antithrombin (TAT) concentrations [4] [ng/mL] | survival [4] | protection against lethality (E. pyramidum venom [5]) | protection against lethality [6] | survival to the end of the experiment (24 h) (E. ocellatus venom [7]) | time of death (E. ocellatus venom [7]) | protection of prothrombin against cleavage, comparison [22] | other results
1 | O=S(=O)(O)CC(S)CS (stereo not shown) [DMPS, 2,3-dimercapto-1-propanesulfonic acid] | 1.64 to 3.4 | 1.18 to 27.7 | 2.18 to 7.55 | 170 to 252 | survived until the end of the experiment (6 h) | complete protection | two deaths | two of the five experimental animals survived | 12.6 to 24 h and 12.6 h | – | time of death [6]: 89 min and 110 min; prolonged animal survival compared to the venom-only controls (E. ocellatus venom [7]): ~ 17 h; survival for the duration of the experiment (24 h) (E. pyramidum venom [8]): two survived for the duration of the experiment (24 h); effect on lethality compared with the venom-only control [9]: slight delay in lethality; TAT concentrations, animals not protected by DMPS [10]: > 400 ng/mL; TAT concentrations, animals that survived for the duration of the experiment (average) [10]: ~ 200 ng/ml; echinocytes in blood films (E. ocellatus venom [11]): markedly reduced the number of echinocytes; prolonged animal survival compared to the venom-only controls (E. ocellatus venom [11]): ~ 10 h; survival at the end of the experiment (24 h) (E. ocellatus venom [11]): 2 of 5; hemorrhagic lesion size (average) (E. ocellatus venom [12]): 1.43 mm^2; RBC morphology (E. ocellatus venom [13]): fully rescued normal RBC morphology; RBC morphology [14]: some protection; inhibition of PLA2 activity [15]: unable to inhibit; inhibition of serine protease activity [16]: unable to inhibit; time to peak plasma concentrations ([17]; after ingestion): 3 to 4 h; time at which the drug can be detected in the plasma ([17]; after oral administration): 30 to 45 min; clinical half-life [17]: ~ 20 h; fraction excreted in the urine / eliminated within 6 h [18]: 85-89% and > 85%; changes in the concentrations of iron or calcium [19]: no significant changes in the concentrations of iron or calcium; signs of toxicity (survival, behavioral and post-mortem observations) [20]: did not display any signs of toxicity in mice
2 | O=C(O)[C@@H](S)[C@@H](S)C(=O)O [DMSA, dimercaptosuccinic acid] | 19.3 to 35.1 | 18.8 to 147 | – | 300 to 666 | three of the five experimental animals survived | – | – | – | – | – | –
3 | O=C(O)CN(CCN(CC(=O)O)CC(=O)O)CC(=O)O [EDTA] | 2.25 to 4.43 | – | 4.89 to 253 | – | – | – | – | – | – | outperformed DMPS and DMSA | inhibition of venom activity in the plasma assay [2]: did not extensively inhibit venom activity; IC50 [21]: 2.18 µM; inhibition of venom-induced plasma clotting in the absence of calcium ([3]; no calcium): effective at inhibiting venom-induced plasma clotting
4 | OCC(S)CS (stereo not shown) [dimercaprol] | 0.04 to 0.18 | 0.14 to 1.36 | 0.49 to 14 | 40 to 50 | survived until the end of the experiment (6 h) | two deaths | complete protection | two experimental animals also survived | 1.85 h and 2.08 h and 2.5 h | outperformed DMPS and DMSA | –
